Measurements: PubChem BioAssay (NCI)
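Each compound was tested at five concentrations against cells in 96-well plates for 48 hours. Abbreviation: GI50, concentration required for 50% inhibition of growth. The concentration for full growth arrest is given as TGI.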

Key:
Assay in all cases: NCI tumour cell line growth inhibition, 48 h
786-0 renal = test system: 786-0 renal
A498 renal = test system: A498 renal
A549 NSCLC = test system: A549 NSCLC
ACHN renal = test system: ACHN renal
BT-549 breast = test system: BT-549 breast
CAKI-1 renal = test system: CAKI-1 renal
CCRF-CEM leukemia = test system: CCRF-CEM leukemia
COLO 205 colon = test system: COLO 205 colon
DU-145 prostate = test system: DU-145 prostate
EKVX NSCLC = test system: EKVX NSCLC
HCC-2998 colon = test system: HCC-2998 colon
HCT-116 colon = test system: HCT-116 colon
HCT-15 colon = test system: HCT-15 colon
HL-60(TB) leukemia = test system: HL-60(TB) leukemia
HOP-62 NSCLC = test system: HOP-62 NSCLC
HOP-92 NSCLC = test system: HOP-92 NSCLC
HS 578T breast = test system: HS 578T breast
HT29 colon = test system: HT29 colon
IGROV1 ovarian = test system: IGROV1 ovarian
K-562 leukemia = test system: K-562 leukemia
KM12 colon = test system: KM12 colon
LOX IMVI melanoma = test system: LOX IMVI melanoma
M14 melanoma = test system: M14 melanoma
MALME-3M melanoma = test system: MALME-3M melanoma
MCF7 breast = test system: MCF7 breast
MDA-MB-231 breast = test system: MDA-MB-231 breast
MDA-MB-435 = test system: MDA-MB-435
MDA-MB-468 breast = test system: MDA-MB-468 breast
MOLT-4 leukemia = test system: MOLT-4 leukemia
NCI-H226 lung = test system: NCI-H226 lung
NCI-H23 lung = test system: NCI-H23 lung
NCI-H460 lung = test system: NCI-H460 lung
NCI-H522 lung = test system: NCI-H522 lung
NCI/ADR-RES ovarian = test system: NCI/ADR-RES ovarian
OVCAR-3 ovarian = test system: OVCAR-3 ovarian
OVCAR-4 ovarian = test system: OVCAR-4 ovarian
OVCAR-5 ovarian = test system: OVCAR-5 ovarian
OVCAR-8 ovarian = test system: OVCAR-8 ovarian
PC-3 prostate = test system: PC-3 prostate
RPMI-8226 leukemia = test system: RPMI-8226 leukemia
RXF 393 renal = test system: RXF 393 renal
SF-268 CNS = test system: SF-268 CNS
SF-295 CNS = test system: SF-295 CNS
SF-539 CNS = test system: SF-539 CNS
SK-MEL-2 melanoma = test system: SK-MEL-2 melanoma
SK-MEL-28 melanoma = test system: SK-MEL-28 melanoma
SK-MEL-5 melanoma = test system: SK-MEL-5 melanoma
SK-OV-3 ovarian = test system: SK-OV-3 ovarian
SN12C renal = test system: SN12C renal
SNB-19 CNS = test system: SNB-19 CNS
SNB-75 CNS = test system: SNB-75 CNS
SR leukemia = test system: SR leukemia
SW-620 colon = test system: SW-620 colon
T-47D breast = test system: T-47D breast
TK-10 renal = test system: TK-10 renal
U251 CNS = test system: U251 CNS
UACC-257 melanoma = test system: UACC-257 melanoma
UACC-62 melanoma = test system: UACC-62 melanoma
UO-31 renal = test system: UO-31 renal

CS(=O)(=O)Nc1cc(-c2ccc3ncnc(Nc4ccc(OCc5cccnc5)c(Cl)c4)c3c2)cnc1Cl
GI50 (786-0 renal): 1810 nM
TGI (786-0 renal): 11100 nM
GI50 (A498 renal): 1840 nM
TGI (A498 renal): 6490 nM
GI50 (A549 NSCLC): 7760 nM
TGI (A549 NSCLC): 25100 nM
GI50 (ACHN renal): 4450 nM
TGI (ACHN renal): > 48800 nM
GI50 (BT-549 breast): 379 nM
TGI (BT-549 breast): 2220 nM
GI50 (CAKI-1 renal): 935 nM
TGI (CAKI-1 renal): 6450 nM
GI50 (CCRF-CEM leukemia): 801 nM
TGI (CCRF-CEM leukemia): > 37900 nM
GI50 (COLO 205 colon): 1410 nM
TGI (COLO 205 colon): 3590 nM
GI50 (DU-145 prostate): 2740 nM
TGI (DU-145 prostate): 21500 nM
GI50 (EKVX NSCLC): 970 nM
TGI (EKVX NSCLC): 6250 nM
GI50 (HCC-2998 colon): 1590 nM
TGI (HCC-2998 colon): 5220 nM
GI50 (HCT-116 colon): 1690 nM
TGI (HCT-116 colon): 4550 nM
GI50 (HCT-15 colon): 2840 nM
TGI (HCT-15 colon): 17000 nM
GI50 (HL-60(TB) leukemia): 335 nM
TGI (HL-60(TB) leukemia): 10300 nM
GI50 (HOP-62 NSCLC): 1560 nM
TGI (HOP-62 NSCLC): 40900 nM
GI50 (HOP-92 NSCLC): 183 nM
TGI (HOP-92 NSCLC): 1970 nM
GI50 (HS 578T breast): 196 nM
TGI (HS 578T breast): 1700 nM
GI50 (HT29 colon): 1950 nM
TGI (HT29 colon): 13200 nM
GI50 (IGROV1 ovarian): 231 nM
TGI (IGROV1 ovarian): 1090 nM
GI50 (K-562 leukemia): 1850 nM
TGI (K-562 leukemia): 32400 nM
GI50 (KM12 colon): 3820 nM
TGI (KM12 colon): 15200 nM
GI50 (LOX IMVI melanoma): 792 nM
TGI (LOX IMVI melanoma): 2730 nM
GI50 (M14 melanoma): 1510 nM
TGI (M14 melanoma): 13800 nM
GI50 (MALME-3M melanoma): 271 nM
TGI (MALME-3M melanoma): 2130 nM
GI50 (MCF7 breast): 410 nM
TGI (MCF7 breast): 8330 nM
GI50 (MDA-MB-231 breast): 960 nM
TGI (MDA-MB-231 breast): 3050 nM
GI50 (MDA-MB-435): 1160 nM
TGI (MDA-MB-435): 9240 nM
GI50 (MDA-MB-468 breast): 208 nM
TGI (MDA-MB-468 breast): 962 nM
GI50 (MOLT-4 leukemia): 465 nM
TGI (MOLT-4 leukemia): 4910 nM
GI50 (NCI-H226 lung): 1430 nM
TGI (NCI-H226 lung): 10300 nM
GI50 (NCI-H23 lung): 1370 nM
TGI (NCI-H23 lung): 5330 nM
GI50 (NCI-H460 lung): 3580 nM
TGI (NCI-H460 lung): 21400 nM
GI50 (NCI-H522 lung): 641 nM
TGI (NCI-H522 lung): 4390 nM
GI50 (NCI/ADR-RES ovarian): 32700 nM
TGI (NCI/ADR-RES ovarian): > 100000 nM
GI50 (OVCAR-3 ovarian): 700 nM
TGI (OVCAR-3 ovarian): 3480 nM
GI50 (OVCAR-4 ovarian): 4910 nM
TGI (OVCAR-4 ovarian): 90400 nM
GI50 (OVCAR-5 ovarian): 2240 nM
TGI (OVCAR-5 ovarian): 18000 nM
GI50 (OVCAR-8 ovarian): 2560 nM
TGI (OVCAR-8 ovarian): 20500 nM
GI50 (PC-3 prostate): 1660 nM
TGI (PC-3 prostate): 14300 nM
GI50 (RPMI-8226 leukemia): 2050 nM
TGI (RPMI-8226 leukemia): 6800 nM
GI50 (RXF 393 renal): 367 nM
TGI (RXF 393 renal): 2440 nM
GI50 (SF-268 CNS): 835 nM
TGI (SF-268 CNS): 10400 nM
GI50 (SF-295 CNS): 2370 nM
TGI (SF-295 CNS): 12100 nM
GI50 (SF-539 CNS): 852 nM
TGI (SF-539 CNS): 3500 nM
GI50 (SK-MEL-2 melanoma): 901 nM
TGI (SK-MEL-2 melanoma): 2700 nM
GI50 (SK-MEL-28 melanoma): 652 nM
TGI (SK-MEL-28 melanoma): 8640 nM
GI50 (SK-MEL-5 melanoma): 617 nM
TGI (SK-MEL-5 melanoma): 1930 nM
GI50 (SK-OV-3 ovarian): 1490 nM
TGI (SK-OV-3 ovarian): 7140 nM
GI50 (SN12C renal): 904 nM
TGI (SN12C renal): 11300 nM
GI50 (SNB-19 CNS): 1150 nM
TGI (SNB-19 CNS): 9240 nM
GI50 (SNB-75 CNS): 139 nM
TGI (SNB-75 CNS): 4370 nM
GI50 (SR leukemia): 746 nM
TGI (SR leukemia): > 20600 nM
GI50 (SW-620 colon): 1900 nM
TGI (SW-620 colon): 10900 nM
GI50 (T-47D breast): 150 nM
TGI (T-47D breast): 1470 nM
GI50 (TK-10 renal): 714 nM
TGI (TK-10 renal): 5510 nM
GI50 (U251 CNS): 917 nM
TGI (U251 CNS): 4650 nM
GI50 (UACC-257 melanoma): 1620 nM
TGI (UACC-257 melanoma): 12600 nM
GI50 (UACC-62 melanoma): 419 nM
TGI (UACC-62 melanoma): 2320 nM
GI50 (UO-31 renal): 1680 nM
TGI (UO-31 renal): 20300 nM
